{
  "source": "patent US20220280469A1",
  "about": "“PHARMACEUTICAL COMPOUND AND PREPARATION METHOD THEREFOR AND USE THEREOF” (priority 2019, published 2022)",
  "key": {"[1]": {"system": "MIA PaCa-2 pancreas orthotopic transplantation tumor", "assay": "Kaplan-Meier survival in MIA PaCa-2 pancreas orthotopic transplantation model", "conditions": "once every 7 days, three times", "method": "Pancreas of BALB/c nude mice was transplanted orthotopically with Mia paca-2 cells (reporter gene: luciferase) to prepare pancreatic cancer transplantation in situ models, and then the mice were randomly divided into 4 groups with 6 mice in each, and administered with drugs 10 days after the models were established. […] The drugs were administered once every 7 days, three times in total. The mice were weighed every other day, and the survival state of the mice was recorded. Kaplan-Meier survival curves were drawn to examine the influence of different drug treatments on the survival state of the mice."}, "[2]": {"system": "PANC-1 subcutaneous transplantation tumor", "assay": "Anti-tumor effect in PANC-1 subcutaneous transplantation tumor model", "assay_type": "in vivo, BALB/c Nude mouse", "conditions": "4 mg/kg cisplatin (effective dose), once a week, 4 times", "experimental": "The human pancreatic cancer cell strain PANC-1 was cultured in a DMEM high-glucose medium containing 10% FBS. Before being used, the cells were digested with pancreatin and centrifuged for 3 min at 800 r·min^−1 to remove the supernatant. The cells were resuspended in a serum-free DMEM medium, matrigel was added at a ratio of 1:1, and the number of the cells was adjusted to 5×10^6/mL. The cell suspension was inoculated subcutaneously to the right thigh at 100 μL/mouse. […] The tumor-bearing mice were randomly divided into 5 groups with 6 mice in each. […] The drugs were administered via tail vein injection. The administration was performed once a week, 4 times in total. The long (l) and short (r) diameters of the tumors were measured with a vernier caliper every other day to calculate tumor volume. All mice were sacrificed on day 11 after the administration cycle was completed, and they were dissected to get the tumors, which were then weighed. The tumor volume calculation formula was as follows: V=(l×r^2)/2."}, "[3]": {"assay": "Pharmacokinetics and tumor targeting of Pt in tumor tissue of pancreatic cancer orthotopic transplantation model mice", "assay_type": "in vivo, mouse", "conditions": "8 mg/kg", "experimental": "Mouse pancreatic cancer cells transfected with luciferase reporter genes were used to prepare mouse pancreatic cancer orthotopic transplantation models. The tumor volume of the mice were determined by injecting […] into tail veins, and the mice with similar tumor volume were selected for evaluation of systemic PK and tumor-targeting property. […] Pharmacokinetic parameters were calculated using PK Solver 2.0."}},
  "data": [
    {"molecule": "N.N.[Cl][Pt][Cl]", "note": "[cisplatin, cis-diamminedichloroplatinum]", "values": [
      {"measurement": "body weight of the mice in the whole treatment process", "setting": "[1]", "result": "significantly reduced"},
      {"measurement": "body weight of the mice during the administration process", "setting": "[2]", "result": "remarkably decreased"},
      {"measurement": "inhibition of PANC-1 subcutaneous transplantation tumor (tumor volume, tumor weight)", "setting": "[2]; tail vein", "result": "no significant inhibition effect"},
      {"measurement": "ID% (drug amount at a tumor site x 100%/injected drug amount)", "setting": "[3]", "result": "less than 5%"}
    ]}
  ]
}
